Several values for one entry are separate records, joined by “and”; a condition that tells them apart may be missing. Identical values can stand only once.
Experiment: Pharmacokinetics of CV-10155 solid dosage forms in fed or fasted beagle dogs
Settings: for AUC(0-t): AUCLast; for MRT inf: MRTInf; for half-life: T½
[1] = HPMC-AS formulation, 10 mg PO, fed cohort, individual dogs
[2] = HPMC-AS formulation, 10 mg PO, fed cohort, mean of 4 dogs
[3] = HPMC-AS formulation, 10 mg PO, pentagastrin/fasted cohort, individual dogs
[4] = HPMC-AS formulation, 10 mg PO, pentagastrin/fasted cohort, mean of 4 dogs
[5] = HPMC-AS formulation, 30 mg PO, pentagastrin/fasted cohort, individual dogs
[6] = HPMC-AS formulation, 30 mg PO, pentagastrin/fasted cohort, mean of 4 dogs
[7] = male, beagle, dog, plasma, po, 10 mg, HPMC-AS formulation, 10 mg PO, fed cohort, mean of 4 dogs
[8] = male, beagle, dog, plasma, po, 10 mg, HPMC-AS formulation, 10 mg PO, pentagastrin/fasted cohort, mean of 4 dogs
[9] = male, beagle, dog, plasma, po, 10 mg, HPMC-AS formulation, 10 mg PO, fed cohort, individual dogs
[10] = male, beagle, dog, plasma, po, 30 mg, HPMC-AS formulation, 30 mg PO, pentagastrin/fasted cohort, mean of 4 dogs
[11] = male, beagle, dog, plasma, po, 30 mg, HPMC-AS formulation, 30 mg PO, pentagastrin/fasted cohort, individual dogs

C[C@@]1(O)CC[C@@]2(C)[C@@H](CC[C@@H]3[C@@H]2CC[C@]2(C)[C@@H](C(=O)Cn4cc(C#N)cn4)CC[C@@H]32)C1 [CV-10155, 1-[2-[(3R,5S,8R,9S,10S,13S,14S,17S)-3-hydroxy-3,10,13-trimethyl-1,2,4,5,6,7,8,9,11,12,14,15,16,17-tetradecahydrocyclopenta[a]phenanthren-17-yl]-2-oxoethyl]pyrazole-4-carbonitrile]
AUCExtr [1]: 23.1% and 21.3% and 22.0% and 23.4%
AUCInf [1]: 5047 ng·h/mL and 2440 ng·h/mL and 2105 ng·h/mL and 3712 ng·h/mL
AUCInf/D [1]: 5602 kg·ng·h/mL/mg and 2929 kg·ng·h/mL/mg and 2273 kg·ng·h/mL/mg and 4084 kg·ng·h/mL/mg
AUCLast [1]: 3882 ng·h/mL and 1919 ng·h/mL and 1641 ng·h/mL and 2845 ng·h/mL
Cmax [1]: 512 ng/mL and 334 ng/mL and 273 ng/mL and 649 ng/mL
F [1]: 71.6% and 38.3% and 29.4% and 52.0%
MRTInf [1]: 14.8 h and 15.0 h and 15.5 h
T½ [1]: 12.5 h and 12.2 h and 15.0 h
AUCExtr [2]: 22.5%
AUCInf/D [2]: 3722 kg·ng·h/mL/mg
F [2]: 47.8%
AUCExtr [3]: 20.4% and 14.1% and 47.1% and 17.9%
AUCInf [3]: 2465 ng·h/mL and 2612 ng·h/mL
AUCInf/D [3]: 2762 kg·ng·h/mL/mg and 2441 kg·ng·h/mL/mg and 3314 kg·ng·h/mL/mg and 2821 kg·ng·h/mL/mg
AUCLast [3]: 2118 ng·h/mL and 1754 ng·h/mL and 2145 ng·h/mL
Cmax [3]: 340 ng/mL and 183 ng/mL and 217 ng/mL
F [3]: 36.5% and 34.8% and 29.1% and 38.5%
MRTInf [3]: 14.8 h and 11.6 h and 33.6 h and 13.6 h
Tmax [3]: 1 h
T½ [3]: 11.1 h and 8.84 h and 25.7 h and 9.66 h
AUCExtr [4]: 24.8%
AUCInf/D [4]: 2834 kg·ng·h/mL/mg
F [4]: 34.7%
AUCExtr [5]: 30.3% and 27.1% and 19.4% and 24.4%
AUCInf [5]: 12588 ng·h/mL and 8620 ng·h/mL and 4072 ng·h/mL and 7783 ng·h/mL
AUCInf/D [5]: 4995 kg·ng·h/mL/mg and 3157 kg·ng·h/mL/mg and 1572 kg·ng·h/mL/mg and 2982 kg·ng·h/mL/mg
AUCLast [5]: 8769 ng·h/mL and 6285 ng·h/mL and 3281 ng·h/mL and 5884 ng·h/mL
Cmax [5]: 1440 ng/mL and 954 ng/mL and 302 ng/mL and 993 ng/mL
F [5]: 57.8% and 38.3% and 21.1% and 37.5%
MRTInf [5]: 18.1 h and 14.4 h and 16.2 h
T½ [5]: 13.6 h and 9.98 h and 12.3 h
AUCExtr [6]: 25.3%
AUCInf/D [6]: 3177 kg·ng·h/mL/mg
F [6]: 38.6%
AUC(0-inf) (male, beagle, dog, in vivo, po, 10 mg): 3310 ng·h/mL
AUC(0-inf) (male, beagle, dog, plasma, po, 10 mg, AUCInf, HPMC-AS formulation, 10 mg PO, fed cohort, mean of 4 dogs): 3330 ng·h/mL
AUC(0-inf) (male, beagle, dog, plasma, po, 10 mg, AUCInf, HPMC-AS formulation, 10 mg PO, pentagastrin/fasted cohort, individual dogs): 2630 ng·h/mL
AUC(0-inf) (male, beagle, dog, plasma, po, 10 mg, AUCInf, HPMC-AS formulation, 10 mg PO, pentagastrin/fasted cohort, mean of 4 dogs): 2760 ng·h/mL
AUC(0-t) [7]: 2570 ng·h/mL
AUC(0-t) (male, beagle, dog, plasma, po, 10 mg, HPMC-AS formulation, 10 mg PO, pentagastrin/fasted cohort, individual dogs): 2090 ng·h/mL
AUC(0-t) [8]: 2030 ng·h/mL
Cmax (male, beagle, dog, plasma, po, 10 mg, Cmax, HPMC-AS formulation, 10 mg PO, fed cohort, mean of 4 dogs): 442 ng/mL
Cmax (male, beagle, dog, plasma, po, 10 mg, Cmax, HPMC-AS formulation, 10 mg PO, pentagastrin/fasted cohort, individual dogs): 222 ng/mL
Cmax (male, beagle, dog, plasma, po, 10 mg, Cmax, HPMC-AS formulation, 10 mg PO, pentagastrin/fasted cohort, mean of 4 dogs): 241 ng/mL
MRT inf [9]: 15.7 h
MRT inf [7]: 15.3 h
MRT inf [8]: 18.4 h
Tmax (male, beagle, dog, plasma, po, 10 mg, Tmax, HPMC-AS formulation, 10 mg PO, fed cohort, mean of 4 dogs): 1.13 h
Tmax (male, beagle, dog, plasma, po, 10 mg, Tmax, HPMC-AS formulation, 10 mg PO, pentagastrin/fasted cohort, individual dogs): 2 h
Tmax (male, beagle, dog, plasma, po, 10 mg, Tmax, HPMC-AS formulation, 10 mg PO, pentagastrin/fasted cohort, mean of 4 dogs): 1.5 h
half-life [9]: 756 min
half-life [7]: 786 min
half-life [8]: 828 min
AUC(0-inf) (male, beagle, dog, plasma, po, 30 mg, AUCInf, HPMC-AS formulation, 30 mg PO, pentagastrin/fasted cohort, mean of 4 dogs): 8270 ng·h/mL
AUC(0-t) [10]: 6060 ng·h/mL
Cmax (male, beagle, dog, plasma, po, 30 mg, Cmax, HPMC-AS formulation, 30 mg PO, pentagastrin/fasted cohort, mean of 4 dogs): 922 ng/mL
MRT inf [11]: 20 h
MRT inf [10]: 17.2 h
Tmax (male, beagle, dog, plasma, po, 30 mg, Tmax, HPMC-AS formulation, 30 mg PO, pentagastrin/fasted cohort, mean of 4 dogs): 1 h
half-life [11]: 1070 min
half-life [10]: 804 min
